Experiments:
[1] = tested on: Tetranychus telarius (red spider mites, adults); experiment: Pest toxicity test; format: in vivo; conditions: 0.1% by weight; French bean; 3 days
[2] = tested on: Tetranychus telarius (red spider mites, eggs); experiment: Pest toxicity test; format: in vivo; conditions: 0.1% by weight; French bean; 3 days
Aphis fabae = experiment: Pest toxicity test; format: in vivo; conditions: 0.1% by weight; broad bean; 2 days
Megoura viceae = experiment: Pest toxicity test; format: in vivo; conditions: 0.1% by weight; broad bean; 2 days
[3] = tested on: Aedes aegypti (mosquito larvae); experiment: Pest toxicity test; format: in vivo; conditions: for Mortality grading (kill): 0.01% by weight, water, 1 day; for abnormal growth effects in larva of mosquitos: in vivo
[4] = tested on: Aedes aegypti (mosquito adults); experiment: Pest toxicity test; format: in vivo; conditions: 0.01% by weight; plywood; 1 day
[5] = tested on: Musca domestica (houseflies); experiment: Pest toxicity test, contact test; format: in vivo; conditions: 0.1% by weight; milk/sugar; 2 days; flies sprayed directly
[6] = tested on: Plutella maculipennis (diamond back moth larvae); experiment: Pest toxicity test; format: in vivo; conditions: in vivo
[7] = tested on: Phaedon cochleariae (mustard beetles); experiment: Pest toxicity test; format: in vivo; conditions: in vivo
[8] = tested on: Agrobacterium tumifaciens; experiment: Antibacterial agar test (B1); format: cell-based; conditions: 50 ppm; 5 days
[9] = tested on: Corynebacterium michiganense; experiment: Antibacterial agar test (B2); format: cell-based; conditions: 50 ppm; 5 days
Method: (§1) This Example illustrates the activity of compounds used as the active ingredients of compositions according to the invention against a variety of plant bacterial diseases and fungal post-harvest saprophytic diseases. In a test for such activity, 5 milligrams of the compound to be tested was dissolved or suspended in 10 ml. of acetone and enough of this solution or suspension was added to 18 ml. of nutrient agar (for the bacterial diseases) or 16 ml. of 2% malt agar (for the fungal diseases) to give a final concentration of 50 parts per million of the compound under test. A streptomycin preparation (2 ml. containing 100 units per ml.) was added to the malt agar to prevent bacterial contamination of the fungal tests.
(§2) The agar preparations were dried overnight in Petri dishes and inoculated the following morning with the bacterial or fungal diseases using a multipoint inoculator. The antibacterial activity was assessed after 5 days and the antifungal activity after 6 days. The results of the tests are set out in Table 16 (anti bacterial activity) and Table 17 (antifungal activity). The results are graded as in Example 1 above.

Xanthomonas malvacearum = experiment: Antibacterial agar test (B3); format: cell-based; conditions: 50 ppm; 5 days
Method: as §1, §2

Erwinia carotovora = experiment: Antibacterial agar test (B4); format: cell-based; conditions: 50 ppm; 5 days
Xanthomonas oryzae = format: cell-based; conditions: 50 ppm; 5 days
Pseudomonas syringae = experiment: Antibacterial agar test (B6); format: cell-based; conditions: 50 ppm; 5 days
Streptomyces scabies = experiment: Antibacterial agar test (B7); format: cell-based; conditions: 50 ppm; 5 days
[10] = tested on: Puccinia recondita (wheat); experiment: Fungicidal test against foliar disease A (foliage spray plus soil drench); format: in vivo; conditions: 10 days; for Amount of disease grading, disease A (Table 4): 100 ppm spray and drench
[11] = tested on: Phytophthora infestans (tomato); format: in vivo; conditions: 50 ppm spray + 200 ppm soil drench; 3 days
[12] = tested on: Plasmopara viticola (vine); experiment: Fungicidal test against foliar disease C (foliage spray plus soil drench); format: in vivo; conditions: 10 days
Uncinula necator (vine) = experiment: Fungicidal test against foliar disease D (foliage spray plus soil drench); format: in vivo; conditions: 10 days
[13] = tested on: Piricularia oryzae (rice); format: in vivo; conditions: 7 days
[14] = tested on: Pieris brassicae (cabbage white caterpillars); experiment: Pest toxicity test; format: in vivo; conditions: 0.1% by weight, 2 days
[15] = tested on: Agriolimax reticulatus (slugs); experiment: Molluscicidal activity test; format: in vivo, Agriolimax reticulatus (Mull); conditions: pellet with 4% by weight; 6 days; 10°C
Method: A weighed sample of the compound under test was dissolved in 0.5 c.c. of an ethanol and acetone mixture 50:50 v/v). The solution was diluted with 0.5 cc water and poured onto a calf feeding pellet in a glass Petri dish. The pellet was then air dried for 24 hours. The weight of compound used was chosen so that the dried pellet contained 4% by weight of the active ingredient. Two replicates each consisting of a plastic Petri dish containing a pellet, 2 slugs, and a moistened filter paper to maintain a high relative humidity were used in each test. The dishes were left in a cold room (10°C.) After 6 days the kill was assessed.
The slugs used were Agriolimax reticulatus (Mull), and they had been starved for 24 hours before the commencement of the tests.

Lettuce = experiment: Herbicidal test, pre- and post-emergence; format: in vivo; conditions: 10 kg/ha; scale 0 to 3 (complete kill)
Tomato = experiment: Herbicidal test, pre- and post-emergence; format: in vivo; conditions: 10 kg/ha; scale 0 to 3 (complete kill)
Wheat = experiment: Herbicidal test, pre- and post-emergence; format: in vivo; conditions: 10 kg/ha; scale 0 to 3 (complete kill)
Maize = experiment: Herbicidal test, pre- and post-emergence; format: in vivo; conditions: 10 kg/ha; scale 0 to 3 (complete kill)
Sugar beet = experiment: Further herbicidal test, various rates; format: in vivo; conditions: 5 kg/hectare; scale 0 to 5 (complete kill)
Kale = experiment: Further herbicidal test, various rates; format: in vivo; conditions: 5 kg/hectare; scale 0 to 5 (complete kill)
Carrot = experiment: Further herbicidal test, various rates; format: in vivo; conditions: 5 kg/hectare; scale 0 to 5 (complete kill)
Pea = experiment: Further herbicidal test, various rates; format: in vivo; conditions: 5 kg/hectare; scale 0 to 5 (complete kill)
Onion = experiment: Further herbicidal test, various rates; format: in vivo; conditions: 5 kg/hectare; scale 0 to 5 (complete kill)
Barley = experiment: Further herbicidal test, various rates; format: in vivo; conditions: 5 kg/hectare; scale 0 to 5 (complete kill)
Rice = experiment: Further herbicidal test, various rates; format: in vivo; conditions: 5 kg/hectare; scale 0 to 5 (complete kill)
Oat = experiment: Further herbicidal test, various rates; format: in vivo; conditions: 5 kg/hectare; scale 0 to 5 (complete kill)
[16] = 50 ppm spray + 200 ppm soil drench

Structure (SMILES) | Mortality grading (kill) [1] | Mortality grading (kill) [2] | Mortality grading (kill) (Aphis fabae) | Mortality grading (kill) (Megoura viceae) | Mortality grading (kill) [3] | abnormal growth effects in larva of mosquitos [3] | Mortality grading (kill) [4] | Mortality grading (kill), contact test [5] | Mortality grading (kill) [6] | Mortality grading (kill) [7] | Mortality grading (kill) [14] | % Kill of slugs [15] [%] | Amount of disease grading, disease A (Table 4) [10] | Damage to plants, post-emergence (Lettuce) | Damage to plants, pre-emergence (Lettuce) | Damage to plants, post-emergence (Tomato) | Damage to plants, pre-emergence (Tomato) | Damage to plants, post-emergence (Wheat) | Damage to plants, pre-emergence (Wheat) | Damage to plants, post-emergence (Maize) | also measured
O=[N+]([O-])c1ccc(Nc2c(Cl)c(F)nc(F)c2Cl)c([N+](=O)[O-])c1 [Compound 1, 3,5-dichloro-2,6-difluoro-4(2,4-dinitroanilinopyridine] | 3 (3 represents over 90% kill) | 0 (O represents less than 30% kill) | 3 (3 represents over 90% kill) | 3 (3 represents over 90% kill) | 0 (O represents less than 30% kill) | abnormal growth effects | 2 (2 represents 60 - 90% kill) | 0 (O represents less than 30% kill) | 0 (key: O represents less than 30% kill; 1 represents 30 - 49% kill; 2 represents 60 - 90% kill; 3 represents over 90% kill; C indicates a chemosterilant effect.; A indicates an antifeeding effect.) | 0 (key: O represents less than 30% kill; 1 represents 30 - 49% kill; 2 represents 60 - 90% kill; 3 represents over 90% kill; C indicates a chemosterilant effect.; A indicates an antifeeding effect.) | – | – | – | – | – | – | – | – | – | – | Antibacterial activity grading B1 [8]: 3 (0 to 5); Antibacterial activity grading B2 [9]: 3 (0 to 5); Antibacterial activity grading B3 (Xanthomonas malvacearum): 3 (0 to 5); Antibacterial activity grading B4 (Erwinia carotovora): 3 (0 to 5); Antibacterial activity grading B5 (Xanthomonas oryzae): 3 (0 to 5); Antibacterial activity grading B6 (Pseudomonas syringae): 3 (0 to 5); Antibacterial activity grading B7 (Streptomyces scabies): 3 (0 to 5)
O=[N+]([O-])c1ccc(Nc2c(Cl)c(Cl)nc(Cl)c2Cl)c([N+](=O)[O-])c1 [Compound 8, Tetrachloro-4(2,4-dinitroanilino)pyridine] | 3 (3 represents over 90% kill) | 3 (3 represents over 90% kill) | 0 (O represents less than 30% kill) | 0 (O represents less than 30% kill) | 0 (O represents less than 30% kill) | abnormal growth effects | 0 (O represents less than 30% kill) | 0 (O represents less than 30% kill) | 0 (key: O represents less than 30% kill; 1 represents 30 - 49% kill; 2 represents 60 - 90% kill; 3 represents over 90% kill; C indicates a chemosterilant effect.; A indicates an antifeeding effect.) | 0 (key: O represents less than 30% kill; 1 represents 30 - 49% kill; 2 represents 60 - 90% kill; 3 represents over 90% kill; C indicates a chemosterilant effect.; A indicates an antifeeding effect.) | 0 (O represents less than 30% kill) | 100 | – | – | – | – | – | – | – | – | Amount of disease grading, disease A [10, 16]: 0 (61 to 100); Amount of disease grading, disease B [11]: 3 (0 to 5); Amount of disease grading, disease C [12, 16]: 3 (0 to 5); Amount of disease grading, disease D (Uncinula necator (vine); [16]): 0 (61 to 100); Amount of disease grading, disease E [13, 16]: 0 (61 to 100)
O=[N+]([O-])c1cc(Cl)c(Nc2c(Cl)c(F)nc(F)c2Cl)c(Cl)c1 [Compound 27, 3,5-Dichloro-2,6-difluoro-4(2,6-dichloro-4-nitroanilino)pyridine] | 3 (3 represents over 90% kill) | 3 (3 represents over 90% kill) | 3 (3 represents over 90% kill) | 3 (3 represents over 90% kill) | 3 (3 represents over 90% kill) | – | 2 (2 represents 60 - 90% kill) | 3 (3 represents over 90% kill) | 0 (key: O represents less than 30% kill; 1 represents 30 - 49% kill; 2 represents 60 - 90% kill; 3 represents over 90% kill; C indicates a chemosterilant effect.; A indicates an antifeeding effect.) | 0 (key: O represents less than 30% kill; 1 represents 30 - 49% kill; 2 represents 60 - 90% kill; 3 represents over 90% kill; C indicates a chemosterilant effect.; A indicates an antifeeding effect.) | 0 (O represents less than 30% kill) | 100 | 0 (61 to 100) | 3 | 3 | 1 | 3 | 0 | 0 | 0 | Amount of disease grading, disease C (Table 4) ([12]; 100 ppm spray and drench): 3 (0 to 5); Amount of disease grading, disease D (Table 4) (Uncinula necator (vine); 100 ppm spray and drench): 3 (0 to 5); Damage to plants, pre-emergence (Maize): 0; Damage to plants, pre-emergence (Sugar beet): 4; Damage to plants, pre-emergence (Kale): 4; Damage to plants, pre-emergence (Carrot): 4; Damage to plants, pre-emergence (Pea): 3; Damage to plants, pre-emergence (Onion): 0; Damage to plants, pre-emergence (Barley): 0; Damage to plants, pre-emergence (Rice): 0; Damage to plants, pre-emergence (Oat): 0
N#Cc1c(F)c(F)c(Nc2c(Cl)c(Cl)nc(Cl)c2Cl)c(F)c1F [Compound 42, 4(4-Cyano-2,3,5,6-tetrafluoroanilino)tetrachloropyridine] | 3 (3 represents over 90% kill) | 3 (3 represents over 90% kill) | 3 (3 represents over 90% kill) | 3 (3 represents over 90% kill) | 3 (3 represents over 90% kill) | – | 0 (O represents less than 30% kill) | 3 (3 represents over 90% kill) | 0 (key: O represents less than 30% kill; 1 represents 30 - 49% kill; 2 represents 60 - 90% kill; 3 represents over 90% kill; C indicates a chemosterilant effect.; A indicates an antifeeding effect.) | 0 (key: O represents less than 30% kill; 1 represents 30 - 49% kill; 2 represents 60 - 90% kill; 3 represents over 90% kill; C indicates a chemosterilant effect.; A indicates an antifeeding effect.) | 3 (3 represents over 90% kill) | 50 | 3 (0 to 5) | 2 | 3 | 3 | 3 | 0 | 3 | 0 | Amount of disease grading, disease E (Table 4) ([13]; 100 ppm spray and drench): 0 (61 to 100); Damage to plants, pre-emergence (Maize): 3; Damage to plants, post-emergence (Sugar beet): 5; Damage to plants, pre-emergence (Sugar beet): 5; Damage to plants, post-emergence (Kale): 5; Damage to plants, pre-emergence (Kale): 4; Damage to plants, post-emergence (Carrot): 5; Damage to plants, pre-emergence (Carrot): 5; Damage to plants, post-emergence (Pea): 1; Damage to plants, pre-emergence (Pea): 2; Damage to plants, pre-emergence (Onion): 5; Damage to plants, post-emergence (Barley): 1; Damage to plants, pre-emergence (Barley): 3; Damage to plants, post-emergence (Rice): 0; Damage to plants, pre-emergence (Rice): 3; Damage to plants, post-emergence (Oat): 4; Damage to plants, pre-emergence (Oat): 4
